This note sets out measurements from ChEMBL document CHEMBL1152041, “Design, Synthesis and Pharmacology of Cannabimimetic Indoles” (Bioorg Med Chem Lett, 1994).

For one test, the target named is Cannabinoid receptor (Homo sapiens, UniProt P34972+P21554). As to the kind of experiment: Binding affinity was determined in vitro against cannabinoid receptor by ability to displace [3H]CP-55940. Format: protein assay.
The test system of the next test is Mus musculus. The test is described as follows: Tested in vivo for cannabimimetic activity in mouse. Format: functional.

For orientation: Ki means the dissociation constant of the complex between target and ligand, obtained from inhibition or displacement. Higher therefore signals weaker binding. One may read the ED50 as the dose at which the effect has come halfway, by size or by number of responders. A high value points to a need for a large dose.

On Cannabinoid receptor, `CC(=O)c1c(C)n(CCN2CCOCC2)c2ccccc12` gave a Ki above 10000 nM. Further, the ED50 in the test with Mus musculus was above 350 µmol/kg.
As for `CCCCC[C@H](C)n1c(C)c(C(=O)c2cccc3ccccc23)c2ccccc21`, at Cannabinoid receptor, the Ki stood at 72 nM.
At Cannabinoid receptor, `CCCCCCCn1c(C)c(C(=O)c2cccc3ccccc23)c2ccccc21` came in with a Ki above 10000 nM. This compound registered an ED50 in the test on Mus musculus above 189 µmol/kg.
For `CC(C)=CC(=O)c1c(C)n(CCN2CCOCC2)c2ccccc12`, in that order: above 10000 nM and above 103 µmol/kg.
`Cc1c(C(=O)c2cccc3ccccc23)c2ccccc2n1CCc1ccccc1`: at Cannabinoid receptor, the Ki was determined as 1250 nM. In the test with Mus musculus, this compound gave an ED50 above 257 µmol/kg.
Take `CCCCCn1c(C)c(C(=O)c2cccc3ccccc23)c2ccccc21`: the Ki on Cannabinoid receptor was determined as 9.5 nM. Further, in the test with Mus musculus, the 50% effect level (ED50) was put at a dose of 2.62 µmol/kg.
For the compound `CCCCn1c(C)c(C(=O)c2cccc3ccccc23)c2ccccc21`, the Ki on Cannabinoid receptor stood at 22 nM.
On Cannabinoid receptor, `Cc1c(C(=O)c2cccc3ccccc23)c2ccccc2n1CCC1CCCCC1` came in with a Ki of 46 nM. In addition, it took a dose of 65.8 µmol/kg to reach the 50% effect level with Mus musculus (ED50).
For `CCCCC[C@@H](C)n1c(C)c(C(=O)c2cccc3ccccc23)c2ccccc21`, in that order: 81 nM and 21.5 µmol/kg.
In turn, `CCCCCCn1c(C)c(C(=O)c2cccc3ccccc23)c2ccccc21` yielded a Ki at Cannabinoid receptor of 48 nM. Also, in the test on Mus musculus, the ED50 was 14 µmol/kg.
`CCCCCC(C)n1c(C)c(C(=O)c2cccc3ccccc23)c2ccccc21` (racemic) gave a Ki on Cannabinoid receptor of 33 nM. In the test with Mus musculus, this compound returned an ED50 of 35.6 µmol/kg.
Regarding `CCCCCCC(C)(C)c1ccc([C@@H]2C[C@H](O)CC[C@H]2CCCO)c(O)c1` [CP-55940], in the test with Mus musculus, it took a dose of 0.55 µmol/kg to reach the 50% effect level (ED50).
The same measure, in the same setting: with `CCCCCc1cc(O)c2c(c1)OC(C)(C)[C@@H]1CCC(C)=C[C@@H]21` [DRONABINOL] the figure was 4.7 µmol/kg; with `Cc1c(C(=O)c2cccc3ccccc23)c2cccc3c2n1[C@H](CN1CCOCC1)CO3` [WIN-552122], 6.53 µmol/kg.
